Measured values: patent US8778966B2, “Quinolinone derivatives as PARP and tank inhibitors” (Janssen Pharmaceutica, NV, priority 2007, dated 2014)

molecular target: T1, TANK-2 enzyme (Homo sapiens, UniProt Q9H2K2); experiment: In vitro Scintillation Proximity Assay (SPA) for TANK-2 inhibitory activity; format: biochemical; conditions: in vitro SPA assay TANK-2 pIC50
T1 construct: made in house
T1 sequence (Q9H2K2 1-1166): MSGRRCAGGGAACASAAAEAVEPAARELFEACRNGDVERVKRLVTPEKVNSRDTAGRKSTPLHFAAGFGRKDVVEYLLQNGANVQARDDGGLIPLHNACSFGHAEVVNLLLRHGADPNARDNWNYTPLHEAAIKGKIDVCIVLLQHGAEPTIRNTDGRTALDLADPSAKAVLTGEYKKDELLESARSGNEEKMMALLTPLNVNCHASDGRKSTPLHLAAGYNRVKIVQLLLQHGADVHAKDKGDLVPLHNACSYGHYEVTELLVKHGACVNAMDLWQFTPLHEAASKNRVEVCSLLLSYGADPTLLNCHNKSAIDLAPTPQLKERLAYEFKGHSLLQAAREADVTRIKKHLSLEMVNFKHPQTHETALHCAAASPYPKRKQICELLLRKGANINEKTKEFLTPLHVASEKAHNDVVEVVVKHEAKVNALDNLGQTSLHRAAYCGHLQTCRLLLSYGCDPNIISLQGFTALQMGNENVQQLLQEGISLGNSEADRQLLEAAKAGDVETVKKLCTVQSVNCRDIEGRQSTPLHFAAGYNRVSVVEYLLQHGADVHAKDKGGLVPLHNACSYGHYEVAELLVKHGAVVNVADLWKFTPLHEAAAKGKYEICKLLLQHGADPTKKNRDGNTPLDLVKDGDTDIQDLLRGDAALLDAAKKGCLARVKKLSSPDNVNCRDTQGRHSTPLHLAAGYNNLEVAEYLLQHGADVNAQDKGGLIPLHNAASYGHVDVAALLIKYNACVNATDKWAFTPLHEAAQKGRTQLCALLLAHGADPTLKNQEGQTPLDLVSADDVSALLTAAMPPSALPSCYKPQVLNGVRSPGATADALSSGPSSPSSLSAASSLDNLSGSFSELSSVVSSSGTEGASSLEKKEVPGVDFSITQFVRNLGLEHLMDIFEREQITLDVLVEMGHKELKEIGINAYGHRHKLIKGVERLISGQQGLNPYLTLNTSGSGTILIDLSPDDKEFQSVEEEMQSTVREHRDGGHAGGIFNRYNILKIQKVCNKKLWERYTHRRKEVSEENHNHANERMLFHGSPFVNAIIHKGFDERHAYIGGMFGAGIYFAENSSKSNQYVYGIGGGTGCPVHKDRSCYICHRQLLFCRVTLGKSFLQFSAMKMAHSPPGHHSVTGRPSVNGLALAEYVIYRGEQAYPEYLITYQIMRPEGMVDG
Outline: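 TANK-2 (8 μg/ml final) auto-poly(ADP-ribosyl)ation with [3H]-NAD+/NAD donor was run in Ni flash plates in Tris/HCl pH 7.4 buffer with DTT and MgCl2, 120 min at room temperature, then stopped with excess NAD and scintillation-counted. Blank-corrected cpm was expressed as % of enzyme control, and IC50 was linearly interpolated and reported as pIC50.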

| IC50 [nM] | Compound |
| --- | --- |
| 158 | CCc1cc2ccc(C(C)(C#N)Cc3nc(C#N)cc(OC)n3)cc2[nH]c1=O (single isomer, unassigned) [Compound 204] |

same assay, conditions: read-out: in vitro SPA assay TANK-2 pIC50 (converted)

| IC50 [nM] | Compound |
| --- | --- |
| 20 | CCc1cc2c(OC)cc(C(C)(C#N)Cc3nc(OC)cc(OC)n3)cc2[nH]c1=O (single isomer, unassigned) [Compound 230] |
| 100 | CCc1cc2ccc([C@@](C)(C#N)CCOc3ccc(C#N)cc3)cc2[nH]c1=O (single isomer, unassigned) [Compound 273] |
| 63.1 | CCc1cc2ccc([C@](C)(C#N)CCOc3ccc(C#N)cc3)cc2[nH]c1=O (single isomer, unassigned) [Compound 275] |
| 126 | CCc1cc2ccc([C@](C)(C#N)Cc3cccc(/C=C/S(C)(=O)=O)c3)cc2[nH]c1=O (single isomer, unassigned) [Compound 291] |
| 126 | CCc1cc2ccc([C@@](C)(C#N)Cc3cccc(C#CCO)c3)cc2[nH]c1=O (single isomer, unassigned) [Compound 295] |
| 200 | CCc1cc2ccc([C@](C)(C#N)Cc3cccc(C#CCO)c3)cc2[nH]c1=O (single isomer, unassigned) [Compound 296] |
| 50.1 | CCc1cc2ccc([C@@](C)(C#N)Cc3cc(OC)nc(C)n3)cc2[nH]c1=O (single isomer, unassigned) [Compound 361] |
| 126 | CCc1cc2ccc([C@](C)(C#N)Cc3cc(OC)nc(C)n3)cc2[nH]c1=O (single isomer, unassigned) [Compound 362] |
| 2000 | Cc1cc2ccc([C@@](C)(C#N)C3CCc4ccccc43)cc2[nH]c1=O (single isomer, unassigned) [Compound 385] |
| 1260 | Cc1cc2ccc([C@](C)(C#N)C3CCc4ccccc43)cc2[nH]c1=O (single isomer, unassigned) [Compound 386] |
| 50.1 | CCc1cc2ccc(C(C)(C#N)Cc3cccc(OCCCN4CCNCC4)c3)cc2[nH]c1=O (centres unmarked) [Compound 25] |
| 251 | CCc1cc2ccc(C(C#N)(Cc3ccccc3)c3ccc(C#N)cc3)cc2[nH]c1=O (centres unmarked) [Compound 26] |
| 631 | CCc1cc2ccc(C(C#N)(Cc3ccccc3)c3ccccc3)cc2[nH]c1=O (centres unmarked) [Compound 27] |
| 31.6 | CCc1cc2ccc(C(C#N)(Cc3ccccc3)C3CC3)cc2[nH]c1=O (centres unmarked) [Compound 29] |
| 794 | CCc1cc2ccc(C(C#N)(Cc3ccccc3)C(C)C)cc2[nH]c1=O (centres unmarked) [Compound 30] |
| 251 | CCCC(C#N)(Cc1ccccc1)c1ccc2cc(CC)c(=O)[nH]c2c1 (centres unmarked) [Compound 31] |
| 200 | CCc1cc2ccc(C(C)(C#N)Cc3cc(OC)ccc3F)cc2[nH]c1=O (centres unmarked) [Compound 171] |
| 158 | CCc1cc2ccc(C(C)(C#N)Cc3cccc(-c4ccc[nH]4)c3)cc2[nH]c1=O (centres unmarked) [Compound 176] |
| 200 | CCc1cc2ccc(C(C)(C#N)Cc3cccc(CCS(C)(=O)=O)c3)cc2[nH]c1=O (centres unmarked) [Compound 178] |
| 2510 | Cc1cc2ccc(C(C)(C#N)Cc3cccc(C=Cc4ccccc4)c3)cc2[nH]c1=O (centres unmarked) [Compound 179] |
| 158 | CCc1cc2ccc(C(C)(C#N)Cc3cccc(/C=N/OC)c3)cc2[nH]c1=O (centres unmarked) [Compound 185] |

| IC50 [nM] | Compound |
| --- | --- |
| 79.4 | CCc1cc2ccc(C(C)(C#N)Cc3cccc(C(=N)NO)c3)cc2[nH]c1=O (centres unmarked) [Compound 186] |
| 126 | CCc1cc2ccc(C(C)(C#N)Cc3cccc(OCCCC#N)c3)cc2[nH]c1=O (centres unmarked) [Compound 194] |
| 398 | CCc1cc2ccc(C(C)(C#N)Cc3cccc(OCCC#N)c3)cc2[nH]c1=O (centres unmarked) [Compound 195] |
| 316 | C#CCOc1cccc(CC(C)(C#N)c2ccc3cc(CC)c(=O)[nH]c3c2)c1 (centres unmarked) [Compound 196] |
| 63.1 | CCc1cc2ccc(C(C)(C#N)COCc3ccccc3)cc2[nH]c1=O (centres unmarked) [Compound 197] |
| 200 | CCc1cc2ccc(C(C)(C#N)Cc3cccc(OCCS(C)(=O)=O)c3)cc2[nH]c1=O (centres unmarked) [Compound 201] |
| 251 | CCc1cc2ccc(C(C)(C#N)Cc3nc(Cl)cc(OC)n3)cc2[nH]c1=O (centres unmarked) [Compound 202] |
| 200 | CCc1cc2ccc(C(C)(C#N)Cc3nc(N(C)C)cc(N(C)C)n3)cc2[nH]c1=O (centres unmarked) [Compound 205] |
| 501 | CCc1cc2ccc(C(C)(C#N)Cc3cccc(N4CCC(N(C)C)C4)n3)cc2[nH]c1=O (centres unmarked) [Compound 209] |
| 158 | CCc1cc2ccc(C(C)(C#N)Cc3cccc(C#Cc4cncn4C)n3)cc2[nH]c1=O (centres unmarked) [Compound 217] |
| 1000 | CCc1cc2ccc(C(C)(C#N)Cc3cccc(N(C)CCc4ccccc4)n3)cc2[nH]c1=O.Cl (centres unmarked) [Compound 220] |
| 15.8 | CCc1cc2ccc(C(C)(C#N)Cc3cccc(C#N)[n+]3[O-])cc2[nH]c1=O (centres unmarked) [Compound 228] |
| 10 | CCc1cc2c(OC)cc(C(C)(C#N)Cc3nc(OC)cc(OC)n3)cc2[nH]c1=O (centres unmarked) [Compound 229] |
| 158 | CCc1cc2ccc(C(C)(C#N)CN3CCN(c4ccccn4)CC3)cc2[nH]c1=O (centres unmarked) [Compound 233] |
| 1000 | Cc1nc(-c2ccccc2)sc1CC(C)(C#N)c1ccc2cc(C)c(=O)[nH]c2c1 (centres unmarked) [Compound 235] |
| 126 | CCc1cc2ccc(C(C)(C#N)Cc3cccc4c3CCN4)cc2[nH]c1=O (centres unmarked) [Compound 237] |
| 794 | CCc1cc2ccc(C(C)(C#N)Cc3cccc(C(=O)OC(C)C)c3)cc2[nH]c1=O (centres unmarked) [Compound 255] |
| 1260 | Cc1cc2ccc(C(C)(C#N)Cc3cccc(I)c3)cc2[nH]c1=O (centres unmarked) [Compound 256] |
| 251 | CCc1cc2ccc(C(C)(C#N)Cc3cccc(NC)c3)cc2[nH]c1=O (centres unmarked) [Compound 257] |
| 251 | CCc1cc2ccc(C(C)(C#N)Cc3cc(Br)cc(N(C)C)c3)cc2[nH]c1=O (centres unmarked) [Compound 260] |
| 2510 | Cc1cc2ccc(C(C)(C#N)Cc3cccc(OCC4CCOCC4)c3)cc2[nH]c1=O (centres unmarked) [Compound 261] |

| IC50 [nM] | Compound |
| --- | --- |
| 126 | CCc1cc2ccc(C(C)(C#N)Cc3cc(F)ccc3F)cc2[nH]c1=O (centres unmarked) [Compound 280] |
| 158 | CCc1cc2ccc(C(C)(C#N)Cc3ccc(F)c(F)c3)cc2[nH]c1=O (centres unmarked) [Compound 281] |
| 398 | CCc1cc2ccc(C(C)(C#N)Cc3cc(C(F)(F)F)ccc3F)cc2[nH]c1=O (centres unmarked) [Compound 283] |
| 251 | CCOc1cccc(CC(C)(C#N)c2ccc3cc(CC)c(=O)[nH]c3c2)c1 (centres unmarked) [Compound 285] |
| 200 | CCc1cc2ccc(C(C)(C#N)Cc3cccc(OC)c3F)cc2[nH]c1=O (centres unmarked) [Compound 286] |
| 1000 | CCc1cc2ccc(C(C)(C#N)Cc3cc(C(C)C)ccc3OC)cc2[nH]c1=O (centres unmarked) [Compound 288] |
| 251 | CCc1cc2ccc(C(C)(C#N)Cc3cc(OC)c(OC)c(OC)c3)cc2[nH]c1=O (centres unmarked) [Compound 289] |
| 158 | CCc1cc2ccc(C(C)(C#N)Cc3cccc(/C=N/O)c3)cc2[nH]c1=O (centres unmarked) [Compound 299] |
| 398 | CCc1cc2ccc(C(C)(C#N)CN(C)Cc3ccc(C#N)cc3)cc2[nH]c1=O (centres unmarked) [Compound 300] |
| 100 | CCc1cc2ccc(C(C)(C#N)CNCc3ccc(C#N)cc3)cc2[nH]c1=O (centres unmarked) [Compound 302] |
| 1580 | Cc1cc2ccc(C(C)(C#N)Cc3cccc(Oc4ccccc4)c3)cc2[nH]c1=O (centres unmarked) [Compound 305] |
| 100 | CCc1cc2ccc(C(C)(C#N)Cc3nc(C#N)cc(OC)n3)cc2[nH]c1=O (centres unmarked) [Compound 313] |
| 25.1 | CCc1cc2ccc(C(C)(C#N)Cc3cc(C#N)nc(OC)c3)cc2[nH]c1=O (centres unmarked) [Compound 314] |
| 100 | CCc1cc2ccc(C(C)(C#N)Cc3cc(N(C)C)nc(C#N)n3)cc2[nH]c1=O (centres unmarked) [Compound 317] |
| 126 | CCc1cc2ccc(C(C)(C#N)Cc3nc(C#N)cc(N(C)C)n3)cc2[nH]c1=O (centres unmarked) [Compound 318] |
| 63.1 | CCc1cc2ccc(C(C)(C#N)Cc3cc(C#N)nc(C)n3)cc2[nH]c1=O (centres unmarked) [Compound 319] |
| 200 | CCc1cc2ccc(C(C)(C#N)Cc3cc(N(C)C)nc(N(C)C)n3)cc2[nH]c1=O (centres unmarked) [Compound 320] |
| 251 | CCc1cc2ccc(C(C)(C#N)Cc3cc(N(C)C)nc(C)n3)cc2[nH]c1=O (centres unmarked) [Compound 322] |
| 251 | CCc1cc2ccc(C(C)(C#N)Cc3cc(Cl)nc(N(C)C)c3)cc2[nH]c1=O (centres unmarked) [Compound 323] |
